Laboratory results from US6479435B1, “Diaryl ethers and processes for their preparation and herbicidal and desiccant compositions containing them” (ISK Americas Incorporated, priority 1997, dated 2002).

What was measured:
Format in all cases: in vivo
[1] = tested on: soybean (Glycine max L., var. Pella 86, SOY); assay: Pre-emerge greenhouse test, crop damage rating; details: 14 days after application, rating scale 0-100
Procedure, shortened: (§1)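 Visual 0–100 injury rating (100 = all plants dead) taken 14 days after treatment. Rates of 125–1000 g ai/ha in acetone, 187 l/ha, were sprayed onto soil one day post-sowing; pots were surface-watered to incorporate, then bottom-watered.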

[2] = tested on: soybean (Glycine max L., var. Pella 86, SOY); assay: Post-emerge greenhouse test, crop damage rating; details: 14 days after application
Procedure, shortened: (§2)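 Scores use a 0 (no damage) to 100 (complete kill) scale, taken 14 days after a foliar spray. Acetone solutions with 0.25% v/v non-ionic surfactant were applied by track sprayer at 187 l/ha and 63-1000 g ai/ha to bottom-watered 2-3 leaf plants.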

[3] = tested on: common ragweed (Ambrosia artemisiifolia L., AMBEL); assay: Post-emerge greenhouse herbicide test, phytotoxicity rating; details: 14 days after application
Procedure, shortened: as §2

[4] = tested on: upland rice (Oryza sp., var.Tebonnet, RICE); assay: Pre-emerge greenhouse test, crop damage rating; details: 14 days after application, rating scale 0-100
Procedure, shortened: as §1

[5] = tested on: field corn (Zea mays L., var. Dekalb 535, CORN); assay: Pre-emerge greenhouse test, crop damage rating; details: 14 days after application, rating scale 0-100
Procedure, shortened: as §1

[6] = tested on: upland rice (Oryza sp., var.Tebonnet, RICE); assay: Post-emerge greenhouse test, crop damage rating; details: 14 days after application
Procedure, shortened: as §2

[7] = tested on: field corn (Zea mays L., var. Dekalb 535, CORN); assay: Post-emerge greenhouse test, crop damage rating; details: 14 days after application
Procedure, shortened: as §2

[8] = tested on: green foxtail (Setaria viridis, SETVI); assay: Post-emerge greenhouse herbicide test, phytotoxicity rating; details: 14 days after application
Procedure, shortened: as §2

[9] = tested on: lambsquarters (Chenopodium album, CHEAL); assay: as above; details: 14 days after application
Procedure, shortened: as §2

[10] = tested on: large crabgrass (Digitaria sanguinalis, DIGSA); assay: as above; details: 14 days after application
Procedure, shortened: as §2

[11] = tested on: ivyleaf morningglory (Ipomoea hederacea, IPOHE); assay: as above; details: 14 days after application
Procedure, shortened: as §2

[12] = tested on: velvetleaf (Abutilon theophrasti, ABUTH); assay: as above; details: 14 days after application
Procedure, shortened: as §2

[13] = tested on: redroot pigweed (Amaranthus retroflexus, AMARE); assay: as above; details: 14 days after application
Procedure, shortened: as §2

[14] = tested on: barnyardgrass (Echinochloa crusgalli, ECHCG); assay: as above; details: 14 days after application
Procedure, shortened: as §2

[15] = tested on: Johnsongrass (Sorghum halepense, SORHA); assay: as above; details: 14 days after application
Procedure, shortened: as §2

[16] = tested on: green foxtail (Setaria viridis, SETVI); assay: Pre-emerge greenhouse herbicide test, phytotoxicity rating; details: 14 days after application, rating scale 0-100
Procedure, shortened: as §1

[17] = tested on: lambsquarters (Chenopodium album, CHEAL); assay: as above; details: 14 days after application, rating scale 0-100
Procedure, shortened: as §1

[18] = tested on: large crabgrass (Digitaria sanguinalis, DIGSA); assay: as above; details: 14 days after application, rating scale 0-100
Procedure, shortened: as §1

[19] = tested on: ivyleaf morningglory (Ipomoea hederacea, IPOHE); assay: as above; details: 14 days after application, rating scale 0-100
Procedure, shortened: as §1

[20] = tested on: velvetleaf (Abutilon theophrasti, ABUTH); assay: as above; details: 14 days after application, rating scale 0-100
Procedure, shortened: as §1

[21] = tested on: sicklepod (Cassia obtusifolia, CASOB); assay: as above; details: 14 days after application, rating scale 0-100
Procedure, shortened: as §1

[22] = tested on: redroot pigweed (Amaranthus retroflexus, AMARE); assay: as above; details: 14 days after application, rating scale 0-100
Procedure, shortened: as §1

[23] = tested on: common ragweed (Ambrosia artemisiifolia L., AMBEL); assay: as above; details: 14 days after application, rating scale 0-100
Procedure, shortened: as §1

[24] = tested on: barnyardgrass (Echinochloa crusgalli, ECHCG); assay: as above; details: 14 days after application, rating scale 0-100
Procedure, shortened: as §1

[25] = tested on: Johnsongrass (Sorghum halepense, SORHA); assay: as above; details: 14 days after application, rating scale 0-100
Procedure, shortened: as §1

O=c1n(CCCF)nnn1-c1cc(Oc2ncccc2[N+](=O)[O-])c(Cl)cc1Cl [Compound 6-3]
crop damage rating SOY ([1]; 125 g ai/ha): 0 | crop damage rating SOY ([1]; 500 g ai/ha): 0 | SOY crop damage rating (0-100) ([2]; 63 g al/ha): 0 | SOY crop damage rating (0-100) ([2]; 500 g al/ha): 30 | AMBEL phytotoxicity rating (0-100) ([3]; 63 g al/ha): 0 | AMBEL phytotoxicity rating (0-100) ([3]; 500 g al/ha): 0 | crop damage rating RICE ([4]; 125 g ai/ha): 20 | crop damage rating RICE ([4]; 500 g ai/ha): 20 | crop damage rating CORN ([5]; 125 g ai/ha): 30 | crop damage rating CORN ([5]; 500 g ai/ha): 10 | RICE crop damage rating (0-100) ([6]; 63 g al/ha): 0 | RICE crop damage rating (0-100) ([6]; 500 g al/ha): 40 | CORN crop damage rating (0-100) ([7]; 63 g al/ha): 0 | CORN crop damage rating (0-100) ([7]; 500 g al/ha): 0 | SETVI phytotoxicity rating (0-100) ([8]; 63 g al/ha): 0 | SETVI phytotoxicity rating (0-100) ([8]; 500 g al/ha): 30 | CHEAL phytotoxicity rating (0-100) ([9]; 63 g al/ha): 0 | CHEAL phytotoxicity rating (0-100) ([9]; 500 g al/ha): 80 | DIGSA phytotoxicity rating (0-100) ([10]; 63 g al/ha): 0 | DIGSA phytotoxicity rating (0-100) ([10]; 500 g al/ha): 0 | IPOHE phytotoxicity rating (0-100) ([11]; 63 g al/ha): 20 | IPOHE phytotoxicity rating (0-100) ([11]; 500 g al/ha): 70 | ABUTH phytotoxicity rating (0-100) ([12]; 63 g al/ha): 0 | ABUTH phytotoxicity rating (0-100) ([12]; 500 g al/ha): 20 | AMARE phytotoxicity rating (0-100) ([13]; 63 g al/ha): 20 | AMARE phytotoxicity rating (0-100) ([13]; 500 g al/ha): 80 | ECHCG phytotoxicity rating (0-100) ([14]; 63 g al/ha): 0 | ECHCG phytotoxicity rating (0-100) ([14]; 500 g al/ha): 20 | SORHA phytotoxicity rating (0-100) ([15]; 63 g al/ha): 0 | SORHA phytotoxicity rating (0-100) ([15]; 500 g al/ha): 30 | phytotoxicity rating SETVI ([16]; 125 g ai/ha): 99 | phytotoxicity rating SETVI ([16]; 500 g ai/ha): 70 | phytotoxicity rating CHEAL ([17]; 125 g ai/ha): 0 | phytotoxicity rating CHEAL ([17]; 500 g ai/ha): 90 | phytotoxicity rating DIGSA ([18]; 125 g ai/ha): 10 | phytotoxicity rating DIGSA ([18]; 500 g ai/ha): 50 | phytotoxicity rating IPOHE ([19]; 125 g ai/ha): 0 | phytotoxicity rating IPOHE ([19]; 500 g ai/ha): 20 | phytotoxicity rating ABUTH ([20]; 125 g ai/ha): 40 | phytotoxicity rating ABUTH ([20]; 500 g ai/ha): 30 | phytotoxicity rating CASOB ([21]; 125 g ai/ha): 30 | phytotoxicity rating CASOB ([21]; 500 g ai/ha): 40 | phytotoxicity rating AMARE ([22]; 125 g ai/ha): 0 | phytotoxicity rating AMARE ([22]; 500 g ai/ha): 90 | phytotoxicity rating AMBEL ([23]; 125 g ai/ha): 100 | phytotoxicity rating AMBEL ([23]; 500 g ai/ha): 40 | phytotoxicity rating ECHCG ([24]; 125 g ai/ha): 60 | phytotoxicity rating ECHCG ([24]; 500 g ai/ha): 0 | phytotoxicity rating SORHA ([25]; 125 g ai/ha): 30 | phytotoxicity rating SORHA ([25]; 500 g ai/ha): 0

N#Cc1cccnc1Oc1cc(-n2nnn(CCCF)c2=O)c(Cl)cc1Cl [Compound 6-5]
crop damage rating SOY ([1]; 125 g ai/ha): 10 | crop damage rating SOY ([1]; 500 g ai/ha): 0 | SOY crop damage rating (0-100) ([2]; 63 g al/ha): 20 | SOY crop damage rating (0-100) ([2]; 500 g al/ha): 30 | AMBEL phytotoxicity rating (0-100) ([3]; 63 g al/ha): 0 | AMBEL phytotoxicity rating (0-100) ([3]; 500 g al/ha): 0 | crop damage rating RICE ([4]; 125 g ai/ha): 20 | crop damage rating RICE ([4]; 500 g ai/ha): 10 | crop damage rating CORN ([5]; 125 g ai/ha): 20 | crop damage rating CORN ([5]; 500 g ai/ha): 20 | RICE crop damage rating (0-100) ([6]; 63 g al/ha): 20 | RICE crop damage rating (0-100) ([6]; 500 g al/ha): 30 | CORN crop damage rating (0-100) ([7]; 63 g al/ha): 0 | CORN crop damage rating (0-100) ([7]; 500 g al/ha): 0 | SETVI phytotoxicity rating (0-100) ([8]; 63 g al/ha): 0 | SETVI phytotoxicity rating (0-100) ([8]; 500 g al/ha): 30 | CHEAL phytotoxicity rating (0-100) ([9]; 63 g al/ha): 20 | CHEAL phytotoxicity rating (0-100) ([9]; 500 g al/ha): 80 | DIGSA phytotoxicity rating (0-100) ([10]; 63 g al/ha): 0 | DIGSA phytotoxicity rating (0-100) ([10]; 500 g al/ha): 10 | IPOHE phytotoxicity rating (0-100) ([11]; 63 g al/ha): 0 | IPOHE phytotoxicity rating (0-100) ([11]; 500 g al/ha): 0 | ABUTH phytotoxicity rating (0-100) ([12]; 63 g al/ha): 0 | ABUTH phytotoxicity rating (0-100) ([12]; 500 g al/ha): 20 | AMARE phytotoxicity rating (0-100) ([13]; 63 g al/ha): 40 | AMARE phytotoxicity rating (0-100) ([13]; 500 g al/ha): 80 | ECHCG phytotoxicity rating (0-100) ([14]; 63 g al/ha): 0 | ECHCG phytotoxicity rating (0-100) ([14]; 500 g al/ha): 0 | SORHA phytotoxicity rating (0-100) ([15]; 63 g al/ha): 0 | SORHA phytotoxicity rating (0-100) ([15]; 500 g al/ha): 20 | phytotoxicity rating SETVI ([16]; 125 g ai/ha): 0 | phytotoxicity rating SETVI ([16]; 500 g ai/ha): 100 | phytotoxicity rating CHEAL ([17]; 125 g ai/ha): 90 | phytotoxicity rating CHEAL ([17]; 500 g ai/ha): 100 | phytotoxicity rating DIGSA ([18]; 125 g ai/ha): 30 | phytotoxicity rating DIGSA ([18]; 500 g ai/ha): 70 | phytotoxicity rating IPOHE ([19]; 125 g ai/ha): 40 | phytotoxicity rating IPOHE ([19]; 500 g ai/ha): 40 | phytotoxicity rating ABUTH ([20]; 125 g ai/ha): 0 | phytotoxicity rating ABUTH ([20]; 500 g ai/ha): 90 | phytotoxicity rating CASOB ([21]; 125 g ai/ha): 70 | phytotoxicity rating CASOB ([21]; 500 g ai/ha): 50 | phytotoxicity rating AMARE ([22]; 125 g ai/ha): 90 | phytotoxicity rating AMARE ([22]; 500 g ai/ha): 100 | phytotoxicity rating AMBEL ([23]; 125 g ai/ha): 0 | phytotoxicity rating AMBEL ([23]; 500 g ai/ha): 50 | phytotoxicity rating ECHCG ([24]; 125 g ai/ha): 0 | phytotoxicity rating ECHCG ([24]; 500 g ai/ha): 0 | phytotoxicity rating SORHA ([25]; 125 g ai/ha): 30 | phytotoxicity rating SORHA ([25]; 500 g ai/ha): 70
